Data on ten molecules can be found in patent publication US20190327974A1, “SYNERGISTS FOR IMPROVED PESTICIDES” (priority 2017, published 2019).

Each structure is given as a SMILES string. Read-outs that look alike come from different tables or passages of the source.

Series [1] relates to MDA-MB-231 cells. As to the kind of experiment: Cellular toxicity, Cell Titer Glo. Type of series: cell-based, human. To be noted: for toxicity to MDA-MB-231 cells (in words): 48 h, up to 100 μM; for IC50: Homo sapiens, MDA-MB-231, 48 h incubation, Cell Titer Glo, read-out: Viability IC50 MDA-MB-231. Here is the method:
(§1) A seven-point, two-fold dose response series, with a 100 uM as the upper limit and a DMSO-only control point was generated using an Echo 550 liquid handler (Labcyte Inc.) in 384-well plates. Subsequently, the human breast cell lines MDA-MB-231 (tumorigenic) and HB2 (non-tumorigenic) were seeded (1000 cells/well) using a multi-drop Combi (Thermo Fisher Scientific) on top of the compounds. Plates were then incubated at 37° C. and 5% CO2 for 48 hours upon which cell viability was assessed by adding CellTiter-Glo® (Promega) to the reaction. The luminescence signal was measured on a Pherastar FS multi-mode plate reader (BMG Labtech).

Series [2] has as its system HB-2 cells. As to the kind of experiment: Cellular toxicity, Cell Titer Glo. Type of series: cell-based, human. The note with it: for toxicity to HB-2 cells (in words): 48 h, up to 100 μM; for IC50: Homo sapiens, 48 h incubation, Cell Titer Glo, read-out: Viability IC50 HB-2. As for the experimental part: as §1
For series [3], the system named is HB-2 and MDA-MB-231 human cell lines. As to the kind of experiment: Cell toxicity, two human cell lines HB-2 and MDA-MB-231. Type of series: cell-based. To be noted: 48 h, up to 100 μM. As for the experimental part:
FIG. 13 depicts that boronic acids show little cell toxicity. Compounds 1-5 as well as 3.9 and 3.10 were incubated for 48 h with two different human cell lines HB-2 and MDA-MB-231 at 7 concentrations up to 100 μM. Cell viability was measured after 48 h using Cell Titer Glo assay.
as §1

For series [4], the system named is HT29. Description: Cell toxicity panel, viability (luminescence). To be noted: Readout: Luminescence, read-out: IC50 Viability Cells, Cell line: HT29. Type of series: cell-based, human. Here is the method: (§2) To further establish the safety and cell toxicity of compounds according to this invention, their IC50 in killing a broad panel of human cell lines (including both cancerous and non-cancerous) cell lines was determined, and their cell toxicity was tested.

Series [5] deals with Colo205. As to the kind of experiment: Cell toxicity panel, viability (luminescence). Type of series: cell-based, human. The note with it: Readout: Luminescence, read-out: IC50 Viability Cells, Cell line: Colo205. Here is the method:
as §2

Series [6] has as its system H23. Description: Cell toxicity panel, viability (luminescence). Type of series: cell-based, human. The note with it: Readout: Luminescence, read-out: IC50 Viability Cells, Cell line: H23. Here is the method: as §2
Series [7] deals with PC3. Description: Cell toxicity panel, viability (luminescence). Type of series: cell-based, human. To be noted: Readout: Luminescence, read-out: IC50 Viability Cells, Cell line: PC3. As for the experimental part: as §2
The subject of series [8] is Hela. Description: Cell toxicity panel, viability (luminescence). Type of series: cell-based, human. The note with it: Readout: Luminescence, read-out: IC50 Viability Cells, Cell line: Hela. As for the experimental part:
as §2

The subject of series [9] is HCT116. As to the kind of experiment: Cell toxicity panel, viability (luminescence). Type of series: cell-based, human. To be noted: Readout: Luminescence, read-out: IC50 Viability Cells, Cell line: HCT116. Here is the method:
as §2

In series [10] the target is bacterial AmpC β-lactamase (Escherichia coli, UniProt P00811). Description: AmpC β-lactamase selectivity. Type of series: biochemical. As for the experimental part: To characterize the selectivity of boronic acids 1 to 5, they were assayed against AChE, the target of OP and carbamate insecticides (Table 1) as well as trypsin and bacterial AmpC β-lactamase. […] The toxicity of the hits against two human cell lines was further assessed.
To characterize the selectivity of boronic acids 1 to 5, they were assayed against the target of OP insecticides, AChE, as well as trypsin and bacterial AmpC β-lactamase (Table 1). AChE and αE7 are homologous, sharing the α/β-hydrolase fold and the same catalytic machinery, however the topology of their binding pockets is dissimilar (Jackson, C. J. et al. Structure and function of an insect α-carboxylesterase (αEsterase7) associated with insecticide resistance. Proc. Natl. Acad. Sci. U.S.A. 110, 10177-82 (2013) and Correy, G. J. et al. Mapping the Accessible Conformational Landscape of an Insect Carboxylesterase Using Conformational Ensemble Analysis and Kinetic Crystallography. Structure 24, 1-11 (2016).). Both trypsin and AmpC β-lactamase contain an activated serine nucleophile and oxyanion hole, however trypsin contains a serine-histidine-aspartic acid (Hedstrom, L. Serine protease mechanism and specificity. Chem. Rev. 102, 4501-4523 (2002).) while AmpC β-lactamase contains a serine-tyrosine-lysine catalytic triad (Dubus, A., et al. The roles of residues Tyr150, Glu272, and His314 in class C β-lactamases. Proteins Struct. Funct. Genet. 25, 473-485 (1996).).

The target in series [11] is T1, Electrophorus electricus AChE (Electrophorus electricus, UniProt O42275).
T1 construct: purchased Sigma Type V-S
Description: AChE selectivity (Ellman, acetylthiocholine). To be noted: for Ki: tested to solubility limit, read-out: Ki Ee AChE. Type of series: biochemical. Here is the method:
Initially, the KM for AChE with the substrate acetylthiocholine was determined by monitoring thiocholine production with 5,5′-dithiobis(2-nitrobenzoic acid) (DTNB) at 412 nm. Acetylthiocholine was prepared in assay buffer (100 mM NaH2PO4 pH 7.4) to 10 mM and serially diluted 1-in-2 to achieve concentrations from 10 mM to 0.08 mM while AChE was prepared in 20 mM NaH2PO4 pH 7.0 supplemented with 4 mg/ml BSA to 0.4 nM. […] The reaction was initiated by the addition of 20 μl AChE (40 pM final concentration). Product formation was monitored for six minutes at room temperature and the initial rates of thioester hydrolysis were determined by linear regression using GraphPad Prism. The Michalis constant was determined as before (FIG. 10).
AChE inhibition was determined by assaying the initial rate of acetylthiocholine hydrolysis in the presence of either neat DMSO or the boronic acid compounds in DMSO. […] Reactions were prepared by pipetting 178 μl assay buffer supplemented with acetylthiocholine (to a final concentration of 100 μM) and DTBN (to a final concentration of 300 μM) into wells of a 96-well plate. […] The reaction was initiated by the addition of 20 μl enzyme (final concentration 40 pM). Product formation was monitored for six minutes at room temperature and the initial rates of thioester hydrolysis were determined by linear regression. IC50 and Ki values were determined as described previously (FIG. 9).
Background: DTNB colorimetry detects thiols as they appear.

For series [12], the target named is Culex quinquefasciatus CBE (Culex quinquefasciatus, UniProt Q23734). Description: Inhibition of insect CBEs, 4-NPB substrate. Type of series: biochemical. The note with it: n=3. Here is the method:
(§3) Assays were performed with 4-NPB as the substrate.

Series [13] addresses Aedes aegypti CBE. As to the kind of experiment: Inhibition of insect CBEs, 4-NPB substrate. Type of series: biochemical. The note with it: n=3. Here is the method:
as §3

Series [14] deals with Anopheles gambiae CBE. As to the kind of experiment: Inhibition of insect CBEs, 4-NPB substrate. Type of series: biochemical. To be noted: n=3. Here is the method:
as §3

The IC50 is the concentration needed to halve the response being measured. By Ki is commonly meant a dissociation constant, usually derived from enzyme kinetics or from competition with a known ligand.

Consider `OB(O)c1cc(Br)cc(Oc2ccccc2)c1` [Compound 3.10, 3-Bromo-5-phenoxyfenylboronic acid], for which the “toxicity to MDA-MB-231 cells (in words)” value in series [1] is recorded as “do not exhibit any cellular toxicity”. In [2], the “toxicity to HB-2 cells (in words)” value is “do not exhibit any cellular toxicity”. Further, the “cellular toxicity” value in [3] is “do not exhibit any cellular toxicity up to 100 μM”.

As to `OB(O)c1cc(Br)cc(OCc2ccccc2)c1` [Compound 3.9], in series [1], the “toxicity to MDA-MB-231 cells (in words)” value is reported as “do not exhibit any cellular toxicity”. Further, the “toxicity to HB-2 cells (in words)” value in series [2] is “do not exhibit any cellular toxicity”. In addition, the IC50 is 72.8 µM in series [4] (Homo sapiens, HT-29); more than 99.8 µM in series [5] (Homo sapiens, COLO 205); 99.3 µM in series [6] (Homo sapiens, NCI-H23); more than 99.8 µM in series [7] (Homo sapiens, PC-3); 2.1 µM in [8] (Homo sapiens, HeLa); more than 99.8 µM in series [9] (Homo sapiens, HCT-116). Also, the “cellular toxicity” value in series [3] is “do not exhibit any cellular toxicity up to 100 μM”.

Turning to `Cc1ccc(B(O)O)cc1OCc1ccccc1` [Compound 2], the Ki in series [10] was 0.38 µM; in [11] it was more than 300 µM; in series [12], 2.4 µM; in series [13], 3.1 µM; in series [14], 0.17 µM. Further, the IC50 in series [1] is more than 100 µM; in series [2], 20.5 µM; in series [4] (Homo sapiens, HT-29), 34.1 µM; in series [5] (Homo sapiens, COLO 205), 91.5 µM; in series [6] (Homo sapiens, NCI-H23), more than 99.8 µM; in [7] (Homo sapiens, PC-3) it was 49.1 µM. The concentration for half-maximal inhibition (IC50) worked out at 4 µM in [8] (Homo sapiens, HeLa) and 62.8 µM in [9] (Homo sapiens, HCT-116). Moreover, the “toxicity to HB-2 cells (in words)” value in series [2] is given as “low toxicity”. Further, in series [3], the “cellular toxicity” value is recorded as “low toxicity against HB-2”.

Consider `OB(O)c1ccccc1` [PBA, phenylboronic acid, reference compound], for which the Ki in series [11] is more than 10000 µM.

As for `OB(O)c1cc(Br)cc(N2CCCC2)c1` [Compound 3], the Ki in [10] was found to be 0.06 µM; in series [11], 270 µM; in series [12], 4.7 µM; in series [13] it was 9.9 µM; in [14], 0.79 µM. In addition, the IC50 in [1] is more than 100 µM; in series [2], more than 100 µM; in [4] (Homo sapiens, HT-29), more than 99.8 µM; in series [5] (Homo sapiens, COLO 205), more than 99.8 µM; in series [6] (Homo sapiens, NCI-H23) it was more than 99.8 µM; in [7] (Homo sapiens, PC-3) it was more than 99.8 µM. Besides, the IC50 in series [8] (Homo sapiens, HeLa) was 8.1 µM; in series [9] (Homo sapiens, HCT-116), more than 99.8 µM. For the same molecule, in series [11] (tested to solubility limits (FIG. 9)), the “inhibition of Electrophorus electricus acetylcholinesterase” value was more than 50%.

`OB(O)c1ccc(OCc2ccccc2F)c(Cl)c1` [Compound 5, 3-Chloro-4(2′-fluorobenzyloxy) phenylboronic acid]: the Ki in series [10] was 0.22 µM; in series [11] it was more than 100 µM; in series [12], 0.42 µM; in series [13] it was 40 µM; in series [14] it was 0.03 µM. Moreover, the IC50 in series [1] was more than 100 µM; in [2], 77.8 µM; in series [4] (Homo sapiens, HT-29), 62.4 µM; in series [5] (Homo sapiens, COLO 205), 79.4 µM; in [6] (Homo sapiens, NCI-H23), 92.7 µM; in series [7] (Homo sapiens, PC-3) it was 83.7 µM. The IC50 amounted to 4.8 µM in series [8] (Homo sapiens, HeLa) and 88.5 µM in series [9] (Homo sapiens, HCT-116). Also, the “toxicity to HB-2 cells (in words)” value in series [2] is on record as “low toxicity”. For the same molecule, in [3], the “cellular toxicity” value is reported as “low toxicity against HB-2”.

For `OB(O)c1cc(Br)cc(N2CCOCC2)c1` [Compound 3.1], the 50% inhibitory concentration (IC50) in series [4], in series [5], in series [6], in series [7], in [8] and in series [9] was more than 99.8 µM each time.

`CC(C)Oc1cc(Br)cc(B(O)O)c1` [Compound 3.7, 3-Bromo-5-isopropoxyphenylboronic acid]: the Ki in series [12] was determined as 0.9 µM; in series [13], 2.6 µM; in series [14], 0.33 µM.

On to `OB(O)c1ccc2ccccc2c1` [Compound 4], for which the Ki is 0.104 µM in series [10] and more than 1000 µM in [11]. In addition, the 50% inhibitory concentration (IC50) in series [1] was more than 100 µM; in series [2], more than 100 µM; in series [4] (Homo sapiens, HT-29), more than 99.8 µM; in [5] (Homo sapiens, COLO 205), more than 99.8 µM; in [7] (Homo sapiens, PC-3), more than 99.8 µM; in [8] (Homo sapiens, HeLa) it was 32.7 µM. In addition, the IC50 in [9] (Homo sapiens, HCT-116) was more than 99.8 µM.

In the case of `Cc1ccc(B(O)O)cc1Br` [Compound 1], the Ki in series [10] is 0.216 µM; in series [11] it was more than 1000 µM. The IC50 in series [1] is more than 100 µM; in series [2], more than 100 µM; in series [4] (Homo sapiens, HT-29), more than 99.8 µM; in series [5] (Homo sapiens, COLO 205), more than 99.8 µM; in [6] (Homo sapiens, NCI-H23), more than 99.8 µM; in series [7] (Homo sapiens, PC-3), more than 99.8 µM. For the same molecule, the half-maximal inhibitory concentration (IC50) in [8] (Homo sapiens, HeLa) is 37.9 µM; in series [9] (Homo sapiens, HCT-116), more than 99.8 µM.
